From US11122997B2, “Modulating the aryl hydrocarbon receptor system to treat major depressive disorder” (Mayo Foundation for Medical Education and Research, priority 2015, dated 2021)

Legend:
glioblastoma cells = test: Secreted kynurenine in conditioned media of glioblastoma cells (HPLC); settings: ketamine vs vehicle (FIG. 10)
U251 glioma cells = test: Ketamine treatment of U251 glioma cell culture, mRNA (RT-qPCR) and protein (Western blot) levels; type: cell-based, human; settings: U251 glia
Method: (§1) Lysates obtained from cells subjected to knockdown or overexpression were used to isolate total RNA (Zymo Research). The purity of the extracted RNA samples was assessed using a Nanodrop instrument (Thermo Scientific). All samples had acceptable A260/A280 ratios. AHR, ARNT, AHRR, IDO1, and TDO2 mRNAs levels were quantified by reverse transcription quantitative PCR (RT-qPCR) using a one step RNA-to-Ct™ kit (Life Technologies). The kit contains reagents for converting RNA to cDNA, followed by primer-specific amplification of the desired mRNA (in this case, AHR, ARNT, AHRR, IDO1, and TDO2). GAPDH was used as a reference gene. The quantification of these mRNAs was carried out by employing the ΔΔCt method as described elsewhere (Ingle et al., Cancer Discovery 3(7):812-825, 2013).
(§2) Cell lysates obtained after transfections and from LCLs were subjected to Western immunoblotting to detect levels of AHR, AHRR, ARNT, TDO2, and IDO1 proteins. Briefly, equal amounts of protein (as determined by the BCA protein assay) were loaded onto premade Criterion gels (Bio-Rad) and run for 1 hour at 180V. Proteins from the gels were electrophoretically transferred onto PVDF membranes and blocked at room temperature for 1 hour with 5% non-fat milk dissolved in TBST. The membranes were incubated with primary antibodies (anti-AHR from GeneTex, Inc. (Irvine, Calif.); anti-ARNT and anti AHRR from Sigma (St. Louis, Mo.); TDO2 from OriGene Technologies, Inc.; and IDO1) dissolved in 5% non-fat milk containing TBST at 4° C. overnight with gentle rocking. Following incubation, the membranes were vigorously washed with TB ST several times and then incubated with appropriate secondary antibodies, dissolved in 5% non-fat milk containing TBST at room temperature for 1 hour. Several TBST washes were carried out before ECL reagents were applied to the membranes and radiographic images were captured on X-ray films (GE). B-actin protein also was detected and served as a loading control. Quantification of Western immunoblots was carried out using NIH Image-J (Abramoff et al., Biophotonics Intl 11(7):36-42, 2004), and plotted in GraphPad-Prism software.

iPSC-derived neurons = test: Ketamine treatment of iPSC-derived neuron culture, mRNA and protein levels; type: cell-based, human
Method: Human induced pluripotent stem cells (iPSCs) were purchased from Axol, UK and were differentiated as per the company's protocol. The cells were differentiated for 30 days before being used for lentivirus-mediated knockdown experiments.
as §1, §2

[1] = cited from earlier work
[2] = other NMDA receptor antagonists; cited from earlier work
[3] = ketamine vs vehicle (FIGS. 8A, 8B)

Row | SMILES | secreted KYN in cell culture conditioned media (glioblastoma cells) | protein level of IDOL (U251 glioma cells; ketamine for 24 hours vs vehicle (FIG. 9A)) | mRNA level of AHRR (U251 glioma cells; [3]) | mRNA level of IDOL (U251 glioma cells; [3]) | mRNA level of TDO2 (U251 glioma cells; [3]) | mRNA level of AHRR (iPSC-derived neurons; ketamine vs vehicle (FIG. 8C)) | mRNA level of IDOL (iPSC-derived neurons; ketamine vs vehicle (FIG. 8C)) | mRNA level of TDO2 (iPSC-derived neurons; ketamine vs vehicle (FIG. 8C)) | protein level of AHRR (iPSC-derived neurons; ketamine vs vehicle (FIG. 9B)) | protein level of IDOL (iPSC-derived neurons; ketamine vs vehicle (FIG. 9B)) | protein level of TDO2 (iPSC-derived neurons; ketamine vs vehicle (FIG. 9B)) | effect on mood ([1]; severely depressed patients) | duration of effects ([1]; single infusion) | ketamine-like antidepressant effects [2]
1 | CNC1(c2ccccc2Cl)CCCCC1=O (stereo not drawn) [Ketamine] | decreased levels | decreased levels | Decreased levels | decreased levels | decreased levels | Decreased levels | decreased levels | decreased levels | Decreased levels | decreased levels | decreased levels | rapid improvement in mood | last for weeks | 
2 | CC12CC3CC(C)(C1)CC(N)(C3)C2 [memantine] |  |  |  |  |  |  |  |  |  |  |  |  |  | fail to demonstrate ketamine-like antidepressant effects
3 | C[C@]12N[C@H](Cc3ccccc31)c1ccccc12 [MK801] |  |  |  |  |  |  |  |  |  |  |  |  |  | fail to demonstrate ketamine-like antidepressant effects
